The nature of data set [1]: in vitro. The class given is in vitro ADME, mouse. The following applies: mouse, microsomes, MLM (male CD-1) 0.50 mg/mL, NADPH 1 mM, 1 μM compound, pH 7.4, 37° C., 60 min; for microsomal CLint: read-out: Intrinsic clearance (Clint); for half-life: read-out: half-life (t1/2). The source says: MLM Stability Pooled MLM from male CD-1 mice (BIOIVT M00501) were used.
The target in another data set is T1, 5-HT2C receptor (Homo sapiens, UniProt P28335).
T1 sequence (P28335 33-458): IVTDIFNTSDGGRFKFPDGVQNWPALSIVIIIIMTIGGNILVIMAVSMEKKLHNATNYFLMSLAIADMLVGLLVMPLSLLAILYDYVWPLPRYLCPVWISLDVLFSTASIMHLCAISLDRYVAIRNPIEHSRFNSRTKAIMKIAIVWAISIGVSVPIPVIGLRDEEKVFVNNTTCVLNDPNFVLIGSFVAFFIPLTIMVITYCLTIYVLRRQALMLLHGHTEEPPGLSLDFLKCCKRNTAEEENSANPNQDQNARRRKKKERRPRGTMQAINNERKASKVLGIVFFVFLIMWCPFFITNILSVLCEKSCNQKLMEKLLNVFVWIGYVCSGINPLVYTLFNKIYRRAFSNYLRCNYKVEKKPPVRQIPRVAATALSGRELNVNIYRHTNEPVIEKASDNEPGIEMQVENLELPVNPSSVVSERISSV
Briefly: Ca2+ flux functional assay at 5-HT2C (WuXi 5-HT2C protocol). It is filed as cell-based. Set-up: expressed in transfected cells. Conditions: for Emax: agonist, tested using WuXi 5-HT2C protocol, max dose, read-out: 5-HT2C % Act @ Max Dose (* WuXi protocol). The protocol: Disclosed compounds were tested for agonist activity at several serotonin receptor subtypes (5-HT2A, […], 5-HT2C, and 5-HT1A) using Ca^2+ flux functional assays and the 5-HT1B receptor using a cAMP accumulation assay, with the results summarized in Table 4. […] Potent agonist activity was also observed at the other serotonin receptors tested, although the selectivity profile among the receptors varied across compounds. […] However, at the same time, the N-propyl compounds were more efficacious agonists at 5-HT2B than the corresponding N-methyl compounds. The selectivity of disclosed compounds for 5-HT2A over 5-HT2C and 5-HT1A was less predictable and varied widely across compounds. […] An azetidinyl amide substituent tended to increase potency at 5-HT1A relative to 5-HT2A.
Functional Assays at 5-HT2A, 5-HT2B, and 5-HT1A. Agonist activity at 5-HT2A, 5-HT2B, 5HT2C and 5-HT1A receptors was determined using a FLIPR Ca^2+ flux assay at WuXi AppTec (Hong Kong) Limited according to their standard protocols. Briefly, stably transfected cells expressing the receptor of interest and Gα15 in the case of 5-HT1A (HEK293 for 5-HT2A and 5-HT2B; CHO cells for 5-HT1A) were grown and plated in a 384 well plate and incubated at 37° C. and 5% CO2 overnight. A solution of 250 mM probenecid in 1 mL FLIPR assay buffer was prepared fresh. This was combined with a fluorescent dye (Fluo-4 Direct™) to make a final assay concentration of 2.5 mM. Compounds were diluted 1:3.16 for 10 points and 750 nL was added to a 384 well compound plate using ECHO along with 30 μL assay buffer. The fluorescent dye was then added to the assay plate along with assay buffer to a final volume of 40 μL. The cell plate was incubated for 50 min at 37° C. and 5% CO2 and placed into the FLIPR Tetra along with the compound plate. 10 μL of references and compounds were then transferred from the compound plate into the cell plate and the fluorescent signal was read.
In general terms: Calcium flux is commonly read through the fluorescence of an indicator in the cells.

Data set [2] has as its target T2, 5-HT2B receptor (Homo sapiens, UniProt P41595).
T2 construct: expressed in transfected cells; host or cells: HEK293, stably transfected
Briefly: 5-HT2B receptor radioligand binding ([3H]LSD). The following applies: read-out: 5-HT2B Receptor Ki.

The target of another data set is T3, 5-HT1A receptor (Homo sapiens, UniProt P08908).
T3 construct: expressed in transfected cells; host or cells: CHO cells, stably transfected
T3 sequence (P08908 1-422): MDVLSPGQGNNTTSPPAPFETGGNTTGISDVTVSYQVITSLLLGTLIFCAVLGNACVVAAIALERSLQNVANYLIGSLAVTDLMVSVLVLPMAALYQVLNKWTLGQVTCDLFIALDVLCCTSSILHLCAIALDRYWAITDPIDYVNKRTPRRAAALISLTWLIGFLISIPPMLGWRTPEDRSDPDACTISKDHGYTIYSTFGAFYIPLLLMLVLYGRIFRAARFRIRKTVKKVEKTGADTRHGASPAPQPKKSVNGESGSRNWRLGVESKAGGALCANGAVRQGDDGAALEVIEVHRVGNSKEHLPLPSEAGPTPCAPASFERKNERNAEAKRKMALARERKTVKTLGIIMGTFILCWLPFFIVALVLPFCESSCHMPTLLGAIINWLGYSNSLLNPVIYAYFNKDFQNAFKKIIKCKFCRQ
In words: cell-based. The following applies: agonist, Ca2+ flux; for Emax: CHO, CHO cells with Gα15, max dose, read-out: 5-HT1A % Act @ Max Dose; for EC50: CHO cells with Gα15. In outline: (§1)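 Receptor agonism was assessed as intracellular calcium mobilization in stably transfected cells, with CHO cells additionally carrying Gα15 for the 5-HT1A readout. Calcium was monitored with Fluo-4 Direct dye.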

The nature of data set [3]: in vitro. It is filed as in vitro ADME, rat. Conditions: rat, microsomes, RLM (male Sprague-Dawley) 0.50 mg/mL, NADPH 1 mM, 1 μM compound, pH 7.4, 37° C., 60 min; for microsomal CLint: read-out: Intrinsic clearance (Clint); for half-life: read-out: half-life (t1/2). The source says:
RLM Stability Pooled RLM from male Sprague-Dawley rats (Xenotech R1000) were used.

The target of data set [4] is T2, 5-HT2B receptor. Briefly: cell-based. The class given is cell-based. Conditions: Ca2+ flux; for Emax: HEK293, agonist, HEK293, max dose, read-out: 5-HT2B % Act @ Max Dose; for EC50: agonist, HEK293. In outline: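 FLIPR Tetra fluorescence read-out of calcium flux after compound addition. Receptor-expressing stable lines were used (HEK293 for 2A/2B; CHO with Gα15 for 1A), dye-loaded with Fluo-4 Direct and 2.5 mM final probenecid, 50 min at 37 °C.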

Data set [5] has as its target T4, 5-HT2A receptor (Homo sapiens, UniProt P28223). Briefly: cell-based. Also on record: expressed in transfected cells; host or cells: HEK293, stably transfected. The following applies: Ca2+ flux; for Emax: HEK293, agonist, HEK293, max dose, read-out: 5-HT2A % Act @ Max Dose; for EC50: agonist, HEK293. The class given is cell-based. In outline: as §1
Data set [6] in a line: in vitro. It is filed as in vitro ADME, human. The following applies: human, microsomes, HLM 0.50 mg/mL, NADPH 1 mM, 1 μM compound, pH 7.4, 37° C., 60 min; for microsomal CLint: read-out: Intrinsic clearance (Clint); for half-life: read-out: half-life (t1/2).
The target in data set [7] is T4, 5-HT2A receptor. In words: biochemical. It is filed as binding. Also on record: expressed in transfected cells; host or cells: HEK293, stably transfected. Conditions: [3H]ketanserin 1 nM; HEK293 stable cell line; 1 h, 25 °C. In outline:
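Binding affinity comes from a [^3H]ketanserin radioligand assay run under literature-adapted conditions.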

We go through three molecules from patent US20260317319A1, “NOVEL ERGOLINES AND METHODS OF TREATING MOOD DISORDERS” (Gilgamesh Pharma Inc., priority 2023, published 2026).

Like-named read-outs stand apart in the source and are kept apart here.

In general, EC50 refers to the concentration at which the effect is half-maximal. A lower EC50 goes with higher potency in that assay. A word on the Ki: it is the dissociation constant of the complex between target and ligand, obtained from inhibition or displacement.

T2 sequence (P41595 whole entry): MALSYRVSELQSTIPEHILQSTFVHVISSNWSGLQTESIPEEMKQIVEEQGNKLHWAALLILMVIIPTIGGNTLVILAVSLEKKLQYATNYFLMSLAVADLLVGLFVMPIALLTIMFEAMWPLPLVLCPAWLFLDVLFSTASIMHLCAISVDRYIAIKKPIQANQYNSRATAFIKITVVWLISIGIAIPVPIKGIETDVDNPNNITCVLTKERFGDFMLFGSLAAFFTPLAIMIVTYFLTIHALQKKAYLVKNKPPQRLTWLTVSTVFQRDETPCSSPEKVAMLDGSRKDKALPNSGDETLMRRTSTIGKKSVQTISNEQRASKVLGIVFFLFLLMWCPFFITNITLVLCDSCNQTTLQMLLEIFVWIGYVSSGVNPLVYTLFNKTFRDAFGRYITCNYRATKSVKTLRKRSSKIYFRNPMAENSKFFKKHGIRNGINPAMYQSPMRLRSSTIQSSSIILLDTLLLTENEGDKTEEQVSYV
T4 sequence (P28223 whole entry): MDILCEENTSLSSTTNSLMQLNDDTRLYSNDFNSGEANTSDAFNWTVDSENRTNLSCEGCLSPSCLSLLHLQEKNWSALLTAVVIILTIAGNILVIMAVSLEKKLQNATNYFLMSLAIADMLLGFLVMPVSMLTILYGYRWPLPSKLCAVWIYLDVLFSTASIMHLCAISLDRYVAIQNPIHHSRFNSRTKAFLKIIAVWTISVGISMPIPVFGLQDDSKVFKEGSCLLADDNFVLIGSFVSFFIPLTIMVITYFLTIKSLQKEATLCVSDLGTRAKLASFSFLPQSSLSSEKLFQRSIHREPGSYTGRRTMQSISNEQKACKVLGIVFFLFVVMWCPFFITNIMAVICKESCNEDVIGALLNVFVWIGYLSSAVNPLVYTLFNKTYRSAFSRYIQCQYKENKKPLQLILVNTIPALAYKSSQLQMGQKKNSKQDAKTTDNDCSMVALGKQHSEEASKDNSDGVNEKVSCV

Turning to `CCN(C)C(=O)[C@@H]1C=C2c3cccc4[nH]cc(c34)C[C@H]2N(Cc2cccc(OC)c2)C1` [Compound 92, (6aR,9R)—N-ethyl-7-(3-methoxybenzyl)-N-methyl-4,6,6a,7,8,9-hexahydroindolo[4,3-fg]quinoline-9-carboxamide], the values for the microsomal CLint in “in vitro [1]”, in “in vitro [3]” and in “in vitro [6]” were 321 µL/min/mg, 278 µL/min/mg and 140 µL/min/mg, respectively. Moreover, the half-life in the data set “in vitro [1]” was 4.3 min; in “in vitro [3]”, 5 min; in the data set “in vitro [6]”, 9.9 min. Moreover, the EC50 on 5-HT2C receptor is above 10 µM; on 5-HT1A receptor, above 100 µM; on 5-HT2B receptor [4] it was above 10 µM; at 5-HT2A receptor [5], 0.793 µM. Besides, the Emax was determined as 12.5% on 5-HT2C receptor, 21.6% on 5-HT1A receptor, 0.48% on 5-HT2B receptor [4] and 53.8% on 5-HT2A receptor [5]. For the same molecule, the figures for the Ki on 5-HT2B receptor [2] and at 5-HT2A receptor [7] were 1.95 µM and 0.0111 µM, respectively.

For `CN(C)C(=O)[C@@H]1C=C2c3cccc4[nH]cc(c34)C[C@H]2N(Cc2ccccc2)C1` [Compound 102, (6aR,9R)-7-benzyl-N,N-dimethyl-4,6,6a,7,8,9-hexahydroindolo[4,3-fg]quinoline-9-carboxamide], the results for the microsomal CLint in the data set “in vitro [1]”, in “in vitro [3]” and in “in vitro [6]” were 111 µL/min/mg, 134 µL/min/mg and 16.9 µL/min/mg, respectively. Further, the half-life in “in vitro [1]” stood at 12.5 min; in the data set “in vitro [3]” it was 10.3 min; in the data set “in vitro [6]” it was 82 min. For the same molecule, the 50% effective concentration (EC50) is 0.685 µM on 5-HT2C receptor, 26.2 µM on 5-HT1A receptor, above 10 µM on 5-HT2B receptor [4] and 0.155 µM on 5-HT2A receptor [5]. Also, the Emax at 5-HT2C receptor came to 76.6%; at 5-HT1A receptor, 90.1%; on 5-HT2B receptor [4], 5.86%; at 5-HT2A receptor [5], 65.2%. In addition, the Ki came to 0.17 µM on 5-HT2B receptor [2] and 0.0108 µM on 5-HT2A receptor [7].

Take `CCN(C)C(=O)[C@@H]1C=C2c3cccc4[nH]cc(c34)C[C@H]2N(CC2CCCC2)C1` [Compound 103, (6aR,9R)-7-(cyclopentylmethyl)-N-ethyl-N-methyl-4,6,6a,7,8,9-hexahydroindolo[4,3-fg]quinoline-9-carboxamide]: the microsomal CLint in “in vitro [1]” was found to be 277 µL/min/mg; in “in vitro [3]” it was 185 µL/min/mg; in the data set “in vitro [6]”, 121 µL/min/mg. The results for the half-life in the data set “in vitro [1]”, in “in vitro [3]” and in the data set “in vitro [6]” were 5 min, 7.5 min and 11.4 min, respectively. The 50% effective concentration (EC50) at 5-HT2C receptor is above 10 µM; on 5-HT1A receptor, 84.4 µM; on 5-HT2B receptor [4], above 10 µM; at 5-HT2A receptor [5] it was 0.422 µM. Also, the Emax on 5-HT2C receptor was 21.7%; at 5-HT1A receptor, 122%; on 5-HT2B receptor [4] it was 5.54%; on 5-HT2A receptor [5], 80.1%. In addition, the inhibition constant (Ki) amounted to 0.0117 µM on 5-HT2B receptor [2] and 0.0016 µM at 5-HT2A receptor [7].
